Assay results reported in US20230295162A1 (EÖTVÖS LORÁND TUDOMÁNYEGYETEM, priority 2020, published 2023).
Read-outs that look alike come from different tables or passages of the source.

Columns and labels:
[1] = system: PANC-1 (human pancreatic carcinoma) cells; experiment: Impedance-based viability assay (xCELLigence SP), long treatment; assay type: cell-based; conditions: 72 h, read-out: cytotoxicity expressed in IC50, PANC-1
Excerpt: (Gibco®/Invitrogen Corporation, New York, NY, USA).
Data obtained from each experiment represent mathematical averages.

[2] = system: Capan-1 (pancreas, adenocarcinoma) cells; experiment: Cell viability assay, CellTiter-Glo (Example 21); assay type: cell-based, human; conditions: 72 h treatment
Method: (§1) Effect of the selected compounds on cancer cell viability was measured via CellTiter-Glo® luminescent cell viability assay (Promega, Madison, WI, USA) according to the manufacturer's instructions. Cells were plated onto a flat-bottomed, white 96 well plate (BRANDplates®, cat. no.: 781965). Density of the seeded cells was optimized based on their size and growth rate, as the follows: Panc-1:750 cells/well; DU 145, PC-3, Capan-1, MIA PaCa-2, SCC-25, FaDu and EBC-1: 1000 cells/well; LNCaP, Detroit 562, MDA-MB-231 and MDA-MB-453 1500 cells/well. […] After the treatment, the luminescence signal was recorded using a microplate reader (BioTek Synergy 2 Multi-Mode Reader, BioTek, Winooski, VT, USA). Dose-response curves were generated by GraphPad Prism 8.4.2. software using a non-linear regression model (variable slope, four parameters), (see FIGS. 12-51).

[3] = system: Detroit 562 (pharynx, carcinoma) cells; experiment: Cell viability assay, CellTiter-Glo (Example 21); assay type: cell-based, human; conditions: 72 h treatment
Method: as §1

[4] = system: PC-3 (prostate, adenocarcinoma) cells; experiment: Cell viability assay, CellTiter-Glo (Example 21); assay type: cell-based, human; conditions: 72 h treatment
Method: as §1

[5] = system: EBC-1 (lung, squamous cell carcinoma) cells; experiment: Cell viability assay, CellTiter-Glo (Example 21); assay type: cell-based, human; conditions: 72 h treatment
Method: as §1

[6] = system: SCC-25 (tongue, squamous cell carcinoma) cells; experiment: Cell viability assay, CellTiter-Glo (Example 21); assay type: cell-based, human; conditions: 72 h treatment
Method: as §1

[7] = system: DU 145 (prostate, carcinoma) cells; experiment: Cell viability assay, CellTiter-Glo (Example 21); assay type: cell-based, human; conditions: 72 h
Method: as §1

[8] = system: MDA-MB-231 (breast, adenocarcinoma) cells; experiment: Cell viability assay, CellTiter-Glo (Example 21); assay type: cell-based, human; conditions: 72 h treatment
Method: as §1

[9] = system: LNCaP (prostate, carcinoma) cells; experiment: Cell viability assay, CellTiter-Glo (Example 21); assay type: cell-based, human; conditions: 72 h
Method: as §1

[10] = system: MIA PaCa-2 (pancreas, carcinoma) cells; experiment: Cell viability assay, CellTiter-Glo (Example 21); assay type: cell-based, human; conditions: 72 h treatment
Method: as §1

[11] = system: MDA-MB-453 (breast, carcinoma) cells; experiment: Cell viability assay, CellTiter-Glo (Example 21); assay type: cell-based, human; conditions: 72 h treatment
Method: as §1

[12] = system: Panc-1 (pancreas, carcinoma) cells; experiment: Cell viability assay, CellTiter-Glo (Example 21); assay type: cell-based, human; conditions: 72 h treatment
Method: as §1

[13] = system: H2228 lung cancer cell line; experiment: High-throughput screening, CellTiter-Glo cell viability assay at 100 nM; assay type: cell-based, human; conditions: Homo sapiens, NCI-H2228, HTS, compounds at 100 nM, 72 h, read-out: cytotoxicity expressed in IC50, H2228 (results of High throughput screening)
[14] = system: EBC-1 lung cancer cell line; experiment: as above; assay type: cell-based, human; conditions: Homo sapiens, EBC-1, HTS, compounds at 100 nM, 72 h, read-out: cytotoxicity expressed in IC50, EBC-1 (results of High throughput screening)
Panc-1 human cell line = experiment: Cytotoxicity on Panc-1, xCELLigence SP, IC50 after 24 h, 48 h, 72 h and 96 h (Example 22)

## O=C1C2=C(CCN(Cc3cc(F)cc(F)c3)C2)N2CCN=C2N1Cc1ccc(C(F)(F)F)cc1 [I/30, 7-(3,5-Difluorobenzyl)-4-(4-(trifluoromethyl)benzyl)-2,4,6,7,8,9-hexahydroimidazo[1,2-a]pyrido[3,4-e]pyrimidin-5(1H)-one]
[1]
  IC50: 4 nM
[2]; 3.7 nM
  Capan-1 (pancreas, adenocarcinoma) cell viability (% of control): 100.8 ± 5.3 % of control
[2]; 11.1 nM
  Capan-1 (pancreas, adenocarcinoma) cell viability (% of control): 38.4 ± 4.5 % of control
[2]; 100 nM
  Capan-1 (pancreas, adenocarcinoma) cell viability (% of control): 34.0 ± 2.8 % of control
[2]; 300 nM
  Capan-1 (pancreas, adenocarcinoma) cell viability (% of control): 33.1 ± 1.7 % of control
[3]; 3.7 nM
  Detroit 562 (pharynx, carcinoma) cell viability (% of control): 31.9 ± 6.7 % of control
[3]; 11.1 nM
  Detroit 562 (pharynx, carcinoma) cell viability (% of control): 27.0 ± 5.5 % of control
[3]; 100 nM
  Detroit 562 (pharynx, carcinoma) cell viability (% of control): 24.7 ± 2.9 % of control
[3]; 300 nM
  Detroit 562 (pharynx, carcinoma) cell viability (% of control): 28.7 ± 2.5 % of control
[4]; 3.7 nM
  PC-3 (prostate, adenocarcinoma) cell viability (% of control): 78.9 ± 4.6 % of control
[4]; 11.1 nM
  PC-3 (prostate, adenocarcinoma) cell viability (% of control): 36.6 ± 1.8 % of control
[4]; 100 nM
  PC-3 (prostate, adenocarcinoma) cell viability (% of control): 32.1 ± 3.6 % of control
[4]; 300 nM
  PC-3 (prostate, adenocarcinoma) cell viability (% of control): 31.3 ± 2.5 % of control
[5]; 3.7 nM
  EBC-1 (lung, squamous cell carcinoma) cell viability (% of control): 76.4 ± 2.2 % of control
[5]; 11.1 nM
  EBC-1 (lung, squamous cell carcinoma) cell viability (% of control): 24.8 ± 1.1 % of control
[5]; 100 nM
  EBC-1 (lung, squamous cell carcinoma) cell viability (% of control): 21.3 ± 0.6 % of control
[5]; 300 nM
  EBC-1 (lung, squamous cell carcinoma) cell viability (% of control): 20.1 ± 0.0 % of control
[6]; 3.7 nM
  SCC-25 (tongue, squamous cell carcinoma) cell viability (% of control): 78.7 ± 15.0 % of control
[6]; 11.1 nM
  SCC-25 (tongue, squamous cell carcinoma) cell viability (% of control): 35.0 ± 14.5 % of control
[6]; 100 nM
  SCC-25 (tongue, squamous cell carcinoma) cell viability (% of control): 32.9 ± 2.1 % of control
[6]; 300 nM
  SCC-25 (tongue, squamous cell carcinoma) cell viability (% of control): 36.3 ± 2.6 % of control
[7]; 3.7 nM
  DU 145 cell viability: 37.2 ± 10.4 % of control
[7]; 11.1 nM
  DU 145 cell viability: 7.0 ± 0.9 % of control
[7]; 100 nM
  DU 145 cell viability: 7.0 ± 1.1 % of control
[7]; 300 nM
  DU 145 cell viability: 8.0 ± 2.9 % of control
[8]; 3.7 nM
  MDA-MB-231 (breast, adenocarcinoma) cell viability (% of control): 100.0 ± 4.5 % of control
[8]; 11.1 nM
  MDA-MB-231 (breast, adenocarcinoma) cell viability (% of control): 59.9 ± 2.1 % of control
[8]; 100 nM
  MDA-MB-231 (breast, adenocarcinoma) cell viability (% of control): 52.1 ± 1.8 % of control
[8]; 300 nM
  MDA-MB-231 (breast, adenocarcinoma) cell viability (% of control): 52.6 ± 2.5 % of control
[9]; 3.7 nM
  LNCaP cell viability: 29.6 ± 2.5 % of control
[9]; 11.1 nM
  LNCaP cell viability: 15.0 ± 0.4 % of control
[9]; 100 nM
  LNCaP cell viability: 11.4 ± 0.6 % of control
[9]; 300 nM
  LNCaP cell viability: 11.3 ± 1.1 % of control
[10]; 3.7 nM
  MIA PaCa-2 (pancreas, carcinoma) cell viability (% of control): 65.7 ± 12.6 % of control
[10]; 11.1 nM
  MIA PaCa-2 (pancreas, carcinoma) cell viability (% of control): 19.1 ± 8.0 % of control
[10]; 100 nM
  MIA PaCa-2 (pancreas, carcinoma) cell viability (% of control): 16.7 ± 6.7 % of control
[10]; 300 nM
  MIA PaCa-2 (pancreas, carcinoma) cell viability (% of control): 17.6 ± 7.6 % of control
[11]; 3.7 nM
  MDA-MB-453 (breast, carcinoma) cell viability (% of control): 58.0 ± 24.4 % of control
[11]; 11.1 nM
  MDA-MB-453 (breast, carcinoma) cell viability (% of control): 34.8 ± 3.3 % of control
[11]; 100 nM
  MDA-MB-453 (breast, carcinoma) cell viability (% of control): 31.1 ± 1.8 % of control
[11]; 300 nM
  MDA-MB-453 (breast, carcinoma) cell viability (% of control): 28.9 ± 1.0 % of control
[12]; 3.7 nM
  Panc-1 (pancreas, carcinoma) cell viability (% of control): 100.8 ± 3.4 % of control
[12]; 11.1 nM
  Panc-1 (pancreas, carcinoma) cell viability (% of control): 54.4 ± 3.5 % of control
[12]; 100 nM
  Panc-1 (pancreas, carcinoma) cell viability (% of control): 46.4 ± 3.1 % of control
[12]; 300 nM
  Panc-1 (pancreas, carcinoma) cell viability (% of control): 49.1 ± 0.2 % of control
[13]
  IC50: < 100 nM
[14]
  IC50: < 100 nM
Panc-1 human cell line; PANC-1, 72 h, read-out: IC50 (72 h) [nM]
  IC50: 2.08 ± 0.267 nM
Panc-1 human cell line; PANC-1, 96 h, read-out: IC50 (96 h) [nM]
  IC50: 0.517 ± 0.0232 nM
